Data taken from patent publication US4396543A.
Converted amounts (≈) assume the structure as drawn. “And” between values parts separate entries of the source, which are not always exact repeats. Equal entries are not always repeated.

Assays:
toxicity test, LD50 = conditions: mouse, in vivo, iv; administered intravenously; read-out: LD50 (mg/kg) in Mice
[1] = system: Staphylococcus epidermidis EPI1; format: cell-based; conditions: two values = two experiments, 2 median of five, 19 median of three
[2] = system: Staphylococcus epidermidis EPI2; test: agar-dilution MIC; format: cell-based; conditions: two values = two experiments, 2 median of five, 19 median of three
[3] = system: Streptococcus pyogenes C203; test: agar-dilution MIC; format: cell-based; conditions: two values = two experiments, 2 median of five, 19 median of three
[4] = system: Staphylococcus aureus V41; test: agar-dilution MIC; format: cell-based; conditions: Staphylococcus aureus V41, penicillin-resistant strain; two values = two experiments; 2 median of five, 19 median of three
Procedure: (§1) In Table VII activity is measured by the minimal inhibitory concentration (MIC), i.e. the lowest concentration of compound at which growth of the microorganism is inhibited by the test compound.

[5] = system: Streptococcus Group D 9960; test: agar-dilution MIC; format: cell-based; conditions: two values = two experiments, 2 median of five, 19 median of three
Procedure: as §1

Staphylococcus aureus = test: in vivo experimental bacterial infection, ED50; conditions: mice, two doses subcutaneously; two values = two experiments
[6] = system: Staphylococcus aureus X400; test: agar-dilution MIC; format: cell-based; conditions: Staphylococcus aureus X400, methicillin-resistant strain; two values = two experiments; 2 median of five, 19 median of three
Procedure: as §1

[7] = system: Staphylococcus aureus X1.1; test: agar-dilution MIC; format: cell-based; conditions: two values = two experiments, 2 median of five, 19 median of three experiments
Procedure: as §1

[8] = system: Streptococcus Group D X66; test: agar-dilution MIC; format: cell-based; conditions: two values = two experiments, 2 median of five, 19 median of three
Procedure: as §1

Streptococcus pyogenes = test: in vivo experimental bacterial infection, ED50; conditions: mice; for ED50 Values Streptococcus pyogenes Oral: two doses orally; for ED50 Values Streptococcus pyogenes Subcutaneous: two doses subcutaneously, two values = two experiments
[9] = system: Streptococcus pneumoniae Park I; format: cell-based; conditions: two values = two experiments, 2 median of five, 19 median of three
Procedure: as §1

| Structure (SMILES) | LD50 (toxicity test, LD50) [mg/kg] | MIC [1] [µg/mL] | MIC [2] [µg/mL] | MIC [3] [µg/mL] | MIC [4] [µg/mL] | MIC [5] [µg/mL] | ED50 Values Staphylococcus aureus Subcutaneous (Staphylococcus aureus) | MIC [6] [µg/mL] | MIC [7] [µg/mL] | MIC [8] [µg/mL] | ED50 Values Streptococcus pyogenes Oral (Streptococcus pyogenes) [mg/kg × 2] | ED50 Values Streptococcus pyogenes Subcutaneous (Streptococcus pyogenes) | MIC [9] [µg/mL] |
| --- | --- | --- | --- | --- | --- | --- | --- | --- | --- | --- | --- | --- | --- |
| CCCCCCCCCC(=O)N[C@@H](Cc1ccccc1)C(=O)N[C@@H](Cc1c[nH]c2ccccc12)C(=O)N[C@H](CC(N)=O)C(=O)N[C@@H](CC(=O)O)C(=O)N[C@@H]1C(=O)NCC(=O)N[C@@H](CCCN)C(=O)N[C@@H](CC(=O)O)C(=O)N[C@H](C)C(=O)N[C@@H](CC(=O)O)C(=O)NCC(=O)N[C@H](CO)C(=O)N[C@@H]([C@H](C)CC(=O)O)C(=O)N[C@@H](CC(=O)c2ccccc2N)C(=O)O[C@@H]1C [Compound 19, NTrp-[N-(n-Decanoyl)-L-phenylalanyl]-A-21978C Nucleus] | 600 | 1 (≈ 0.566 µM) | 0.5 (≈ 0.283 µM) | 0.25 (≈ 0.141 µM) | 0.5 (≈ 0.283 µM) | 2 (≈ 1.13 µM) | 0.7 mg/kg × 2 and 0.98 mg/kg × 2 | 1 (≈ 0.566 µM) | 0.5 (≈ 0.283 µM) | 8 (≈ 4.53 µM) | > 200 | 0.39 mg/kg × 2 | 0.75 (≈ 0.424 µM) |
| CCCCCCCCCCCC(=O)Nc1ccc(C(=O)N[C@@H](Cc2c[nH]c3ccccc23)C(=O)N[C@H](CC(N)=O)C(=O)N[C@@H](CC(=O)O)C(=O)N[C@@H]2C(=O)NCC(=O)N[C@@H](CCCN)C(=O)N[C@@H](CC(=O)O)C(=O)N[C@H](C)C(=O)N[C@@H](CC(=O)O)C(=O)NCC(=O)N[C@H](CO)C(=O)N[C@@H]([C@H](C)CC(=O)O)C(=O)N[C@@H](CC(=O)c3ccccc3N)C(=O)O[C@@H]2C)cc1 [Compound 4] | > 300 | – | – | – | – | – | < 5 mg/kg × 2 | 8 (≈ 4.53 µM) | 4 (≈ 2.26 µM) | – | > 200 | 18.8 mg/kg × 2 | – |
| CCCCCCCCCCC(=O)N[C@@H](Cc1ccccc1)C(=O)NCCC[C@@H]1NC(=O)CNC(=O)[C@@H](NC(=O)[C@H](CC(=O)O)NC(=O)[C@@H](CC(N)=O)NC(=O)[C@@H](N)Cc2c[nH]c3ccccc23)[C@@H](C)OC(=O)[C@H](CC(=O)c2ccccc2N)NC(=O)[C@H]([C@H](C)CC(=O)O)NC(=O)[C@@H](CO)NC(=O)CNC(=O)[C@H](CC(=O)O)NC(=O)[C@@H](C)NC(=O)[C@H](CC(=O)O)NC1=O [Compound 26] | – | > 128 | > 128 | 1 (≈ 0.561 µM) | > 128 | 32 (≈ 18 µM) | 9.2 mg/kg × 2 | > 128 | 8 (≈ 4.49 µM) | > 128 | > 200 | > 18 mg/kg × 2 | – |
| CCCCCCCC(=O)N[C@@H](Cc1ccccc1)C(=O)N[C@@H](Cc1c[nH]c2ccccc12)C(=O)N[C@H](CC(N)=O)C(=O)N[C@@H](CC(=O)O)C(=O)N[C@@H]1C(=O)NCC(=O)N[C@@H](CCCN)C(=O)N[C@@H](CC(=O)O)C(=O)N[C@H](C)C(=O)N[C@@H](CC(=O)O)C(=O)NCC(=O)N[C@H](CO)C(=O)N[C@@H]([C@H](C)CC(=O)O)C(=O)N[C@@H](CC(=O)c2ccccc2N)C(=O)O[C@@H]1C [Compound 17] | 450 | 8 (≈ 4.6 µM) | 8 (≈ 4.6 µM) | 2 (≈ 1.15 µM) | 8 (≈ 4.6 µM) | 32 (≈ 18.4 µM) | 2.58 mg/kg × 2 | 8 (≈ 4.6 µM) | 4 (≈ 2.3 µM) | 128 (≈ 73.6 µM) | > 200 | 1.48 mg/kg × 2 | – |
| CCCCCCCCCCCCC(=O)N[C@@H](Cc1ccccc1)C(=O)N[C@@H](Cc1c[nH]c2ccccc12)C(=O)N[C@H](CC(N)=O)C(=O)N[C@@H](CC(=O)O)C(=O)N[C@@H]1C(=O)NCC(=O)N[C@@H](CCCN)C(=O)N[C@@H](CC(=O)O)C(=O)N[C@H](C)C(=O)N[C@@H](CC(=O)O)C(=O)NCC(=O)N[C@H](CO)C(=O)N[C@@H]([C@H](C)CC(=O)O)C(=O)N[C@@H](CC(=O)c2ccccc2N)C(=O)O[C@@H]1C [Compound 21] | – | 2 (≈ 1.11 µM) | 2 (≈ 1.11 µM) | 0.125 (≈ 0.0691 µM) | 0.5 (≈ 0.276 µM) | 0.25 (≈ 0.138 µM) | 0.76 mg/kg × 2 | 2 (≈ 1.11 µM) | 0.5 (≈ 0.276 µM) | 1 (≈ 0.553 µM) | > 200 | 0.14 mg/kg × 2 | – |
| CCCCCCCCCCCC(=O)N[C@H](Cc1ccccc1)C(=O)N[C@@H](Cc1c[nH]c2ccccc12)C(=O)N[C@H](CC(N)=O)C(=O)N[C@@H](CC(=O)O)C(=O)N[C@@H]1C(=O)NCC(=O)N[C@@H](CCCN)C(=O)N[C@@H](CC(=O)O)C(=O)N[C@H](C)C(=O)N[C@@H](CC(=O)O)C(=O)NCC(=O)N[C@H](CO)C(=O)N[C@@H]([C@H](C)CC(=O)O)C(=O)N[C@@H](CC(=O)c2ccccc2N)C(=O)O[C@@H]1C [Compound 1] | 250 | 2 (≈ 1.11 µM) | 1 (≈ 0.557 µM) | 0.125 (≈ 0.0696 µM) | 0.5 (≈ 0.278 µM) | 0.5 (≈ 0.278 µM) | 1.4 mg/kg × 2 and 2.05 mg/kg × 2 | 1 (≈ 0.557 µM) | 0.5 (≈ 0.278 µM) | 1 (≈ 0.557 µM) | > 200 | < 0.25 mg/kg × 2 and 0.21 mg/kg × 2 | – |
| CCCCCCCCCCC(=O)N[C@@H](Cc1ccccc1)C(=O)N[C@@H](Cc1c[nH]c2ccccc12)C(=O)N[C@H](CC(N)=O)C(=O)N[C@@H](CC(=O)O)C(=O)N[C@@H]1C(=O)NCC(=O)N[C@@H](CCCN)C(=O)N[C@@H](CC(=O)O)C(=O)N[C@H](C)C(=O)N[C@@H](CC(=O)O)C(=O)NCC(=O)N[C@H](CO)C(=O)N[C@@H]([C@H](C)CC(=O)O)C(=O)N[C@@H](CC(=O)c2ccccc2N)C(=O)O[C@@H]1C [Compound 20] | 400 | 2 (≈ 1.12 µM) | 2 (≈ 1.12 µM) | 0.125 (≈ 0.0701 µM) | 0.5 (≈ 0.281 µM) | 2 (≈ 1.12 µM) | 1.25 mg/kg × 2 | 2 (≈ 1.12 µM) | 0.5 (≈ 0.281 µM) | 4 (≈ 2.24 µM) | > 200 | 0.35 mg/kg × 2 | – |
| CCCCCCCCC(=O)N[C@@H](Cc1ccccc1)C(=O)N[C@@H](Cc1c[nH]c2ccccc12)C(=O)N[C@H](CC(N)=O)C(=O)N[C@@H](CC(=O)O)C(=O)N[C@@H]1C(=O)NCC(=O)N[C@@H](CCCN)C(=O)N[C@@H](CC(=O)O)C(=O)N[C@H](C)C(=O)N[C@@H](CC(=O)O)C(=O)NCC(=O)N[C@H](CO)C(=O)N[C@@H]([C@H](C)CC(=O)O)C(=O)N[C@@H](CC(=O)c2ccccc2N)C(=O)O[C@@H]1C [Compound 18] | > 600 | 4 (≈ 2.28 µM) | 2 (≈ 1.14 µM) | 0.5 (≈ 0.285 µM) | 2 (≈ 1.14 µM) | 8 (≈ 4.56 µM) | 1.38 mg/kg × 2 | 4 (≈ 2.28 µM) | 2 (≈ 1.14 µM) | 32 (≈ 18.2 µM) | 184 | 0.59 mg/kg × 2 | – |
| CCCCCCCCCCCCCC(=O)N[C@@H](Cc1ccccc1)C(=O)N[C@@H](Cc1c[nH]c2ccccc12)C(=O)N[C@H](CC(N)=O)C(=O)N[C@@H](CC(=O)O)C(=O)N[C@@H]1C(=O)NCC(=O)N[C@@H](CCCN)C(=O)N[C@@H](CC(=O)O)C(=O)N[C@H](C)C(=O)N[C@@H](CC(=O)O)C(=O)NCC(=O)N[C@H](CO)C(=O)N[C@@H]([C@H](C)CC(=O)O)C(=O)N[C@@H](CC(=O)c2ccccc2N)C(=O)O[C@@H]1C [Compound 22] | – | 4 (≈ 2.19 µM) | 4 (≈ 2.19 µM) | 0.25 (≈ 0.137 µM) | 1 (≈ 0.548 µM) | 0.5 (≈ 0.274 µM) | 4.8 mg/kg × 2 | 2 (≈ 1.1 µM) | 0.5 (≈ 0.274 µM) | 1 (≈ 0.548 µM) | > 200 | < 0.27 mg/kg × 2 and 0.36 mg/kg × 2 | – |
| CCCCCC(=O)N[C@@H](Cc1c[nH]c2ccccc12)C(=O)NCCC[C@@H]1NC(=O)CNC(=O)[C@@H](NC(=O)[C@H](CC(=O)O)NC(=O)[C@@H](CC(N)=O)NC(=O)[C@H](Cc2c[nH]c3ccccc23)NC(=O)CCCCCCCCC(C)CC)[C@@H](C)OC(=O)[C@H](CC(=O)c2ccccc2N)NC(=O)[C@H]([C@H](C)CC(=O)O)NC(=O)[C@@H](CO)NC(=O)CNC(=O)[C@H](CC(=O)O)NC(=O)[C@@H](C)NC(=O)[C@H](CC(=O)O)NC1=O (stereo partly shown) [Compound 29] | 37.5 | – | – | – | – | 32 (≈ 16.4 µM) | – | 1 (≈ 0.514 µM) | – | 8 (≈ 4.11 µM) | > 200 | 10.6 mg/kg × 2 | – |
